Data as given in patent US20130296425A1, “PROPHYLACTIC OR THERAPEUTIC AGENT FOR A PERIPHERAL NERVE DISORDER INDUCED BY ANTI-CANCER AGENTS” (NAGOYA INDUSTRIAL SCIENCE RESEARCH INSTITUTE, priority 2011, published 2013).

What follows are compounds tested on paclitaxel-induced peripheral nerve disorder rats (assay: Single intraperitoneal administration, hyperalgesia induced by paclitaxel (von Frey test)). Settings: Rattus norvegicus, ip, single i.p. dose 0.3 mg/kg, higher of the values after 1 hour and 5 hours, read-out: Recovery rate of 50% reaction threshold value (%).
Type: in vivo
Description: Male SD rats in six weeks age (one group comprised six rats) were used as experimental animals and the paclitaxel-induced peripheral nerve disorder rats were prepared in the same manner as in the above 1.[1](2). The test drug was administered intraperitoneally in a single dose so as to make it 0.3 mg/kg in any of the cases during the period of 18 to 25 days or 20 to 27 days after initiation of administration of paclitaxel.
A von Frey test was conducted in the same manner as in the above 1.[1](4) using the rats mentioned in the above (1) and each 50% reaction threshold value was measured. With regard to the higher 50% reaction threshold value between the 50% reaction threshold values after 1 hour and 5 hours from administration of a test drug, a recovery rate (%) of the 50% reaction threshold value was calculated.
Recovery rate (%) of 50% reaction threshold value={[(50% reaction threshold value after 1 hour or 5 hours from administration of test drug)−(50% reaction threshold value before administration of test drug)]÷[(Normal threshold value)−(50% reaction threshold value before administration of test drug)]}×100

**Q.** How did the inhibition in vivo at 0.3 mg/kg turn out when CCCCCCCCCC(=O)OCC [Compound 2, Decanoic acid ethyl ester] was run?
**A.** 22.9%

**Q.** For CCCCCCC/C=C/C(=O)OC [Compound 3, Trans-2-decenoic acid methyl ester], which inhibition in vivo at 0.3 mg/kg is on record?
**A.** 63.2%

**Q.** For CCCCCCC/C=C/C(=O)OCCC [Compound 5, Trans-2-decenoic acid propyl ester], which inhibition in vivo at 0.3 mg/kg is on record?
**A.** 71.2%

**Q.** How did the inhibition in vivo at 0.3 mg/kg turn out when CCCCCCC/C=C/C(=O)OC(C)C [Compound 6, Trans-2-decenoic acid isopropyl ester] was run?
**A.** 10.2%

**Q.** Which inhibition in vivo at 0.3 mg/kg does the source give for CCCCCCC/C=C/C(=O)OCCCC [Compound 7, Trans-2-decenoic acid butyl ester] here?
**A.** 22.7%

**Q.** CCCCCCC/C=C/C(=O)OC(C)(C)C [Compound 10, Trans-2-decenoic acid tert-butyl ester] was tested. Which inhibition in vivo at 0.3 mg/kg did it give?
**A.** 50%

**Q.** CCCCCCC/C=C/C(=O)OCCCCCC [Compound 11, Trans-2-decenoic acid hexyl ester] was tested. Which inhibition in vivo at 0.3 mg/kg did it give?
**A.** 60.8%

**Q.** With CCCCCCC/C=C/C(=O)OCCCCCCC [Compound 12, Trans-2-decenoic acid heptyl ester] as the compound, how does the inhibition in vivo at 0.3 mg/kg read?
**A.** 21.3%

**Q.** For CCCCCCC/C=C/C(=O)OCCCCCCCCCC [Compound 14, Trans-2-decenoic acid decyl ester], which inhibition in vivo at 0.3 mg/kg is on record?
**A.** 32.2%

**Q.** With CCCCCCC/C=C/COC(=O)/C=C/CCCCCCC [Compound 16, Trans-2-decenoic acid trans-2-decenyl ester] as the compound, how does the inhibition in vivo at 0.3 mg/kg read?
**A.** 94.4%

**Q.** With C=CCCCCCCCCOC(=O)/C=C/CCCCCCC [Compound 17, Trans-2-decenoic acid trans-9-decenyl ester] as the compound, how does the inhibition in vivo at 0.3 mg/kg read?
**A.** 54%

**Q.** With CCCCCCC/C=C/C(=O)OC1CCCCC1 [Compound 18, Trans-2-decenoic acid cyclohexyl ester] as the compound, how does the inhibition in vivo at 0.3 mg/kg read?
**A.** 15.8%

**Q.** CCCCCC/C=C/CC(=O)OCC [Compound 20, Trans-3-decenoic acid ethyl ester] was tested. Which inhibition in vivo at 0.3 mg/kg did it give?
**A.** 14.7%

**Q.** Which inhibition in vivo at 0.3 mg/kg does the source give for C=CCCCCCCCC(=O)OCC [Compound 22, Trans-9-decenoic acid ethyl ester] here?
**A.** 67.9%

The compounds below were run on paclitaxel-induced peripheral nerve disorder rats (assay: Repeated intraperitoneal administration, hyperalgesia by paclitaxel (von Frey test)). Settings: prophylactic i.p. 0.50 mg/kg/day, paclitaxel; male SD rats.
Type: in vivo, rat
Description: With regard to male SD rats of six weeks age used as the experimental animals, their 50% reaction threshold values to the mechanical stimulus (the measuring method will be mentioned later) and body weights were measured and then the following seven groups each comprising eight rats was organized. • Normal control group • Onset control group • Prophylactic administration group with 0.25 mg/kg/day of a test drug • Prophylactic administration group with 0.50 mg/kg/day of a test drug • Therapeutic administration group with 0.25 mg/kg/day of a test drug • Therapeutic administration group with 0.50 mg/kg/day of a test drug • Therapeutic administration group with 30 mg/kg/day of gabapentin (positive control)
Taxol (registered trademark) injection 30 mg (manufactured by Bristol-Myers Squibb) containing 6 mg/mL of paclitaxel was used. To the rats of each of the above groups except the normal control group was intraperitoneally administered paclitaxel diluted to 2 mg/mL with saline in a dose of 2 mg/kg four times every other day whereupon the paclitaxel-induced peripheral nerve disorder rats were prepared. To the normal control group, an equivalent mixture of ethanol and Cremophor EL (registered trademark; manufactured by Sigma; a solvent for Taxisol (registered trademark) injection) diluted with saline to an extent of 3-fold was administered similarly.
To prophylactic administration groups of a test drug, the compound 4 in a dose of 0.25 mg/kg/day or 0.50 mg/kg/day was repeatedly administered intraperitoneally since immediately after initiation of administration of paclitaxel until 13 days thereafter. Meanwhile, to therapeutic administration groups of a test drug and to a therapeutic administration group of gabapentin, the compound 4 in a dose of 0.25 mg/kg/day or 0.50 mg/kg/day or gabapentin in a dose of 30 mg/kg/day, respectively was repeatedly administered intraperitoneally during the period of from 14 days to 42 days after initiation of the administration of paclitaxel.
The seven groups of rats of the above (1) were placed in a transparent acrylic cage with a wire-meshed floor and habituated for about three minutes and the 50% reaction threshold values to the mechanical stimulus of right hind limb were measured after 3, 7, 14, 21, 28, 35 and 42 days from initiation of the administration of paclitaxel. Incidentally, during the period of administration of a test drug, its values were measured after 24 hours from the last administration of a test drug.
The measurement was conducted using von Frey filaments (manufactured by North Coast Medical Inc.) in accordance with the methods of Chaplan, et al. (Journal of Neuroscience Methods, vol. 53, no. 1, pages 55 to 63, 1994) and Dixon, et al. (Annual Review of Pharmacology and Toxicology, vol. 20, pages 441 to 462, 1980). […] The case where the rat escaped at the instance of removing the filament was also called positive. When the positive reaction was noted, stimulus was conducted similarly using a filament of one rank weaker while, when no reaction was noted, stimulus was conducted similarly using a filament of one rank stronger and the point when the reaction changed from negative to positive or from positive to negative was called the first two reactions. […] A 50% reaction threshold value to the mechanical stimulus was measured using the reaction to the six stimuli in total and then (mean value) ± (standard error) for each group was calculated. […]

**Q.** For CCCCCCC/C=C/C(=O)O [trans-2-decenoic acid, reference compound], which “50% reaction threshold values to the mechanical stimulus vs onset control group” value is on record?
**A.** no difference from the onset control group
